# Reference: ChEMBL document CHEMBL4376833, “Influence of Non-natural Cationic Amino Acids on the Biological Activity Profile of Innate Defense Regulator Peptides” (J Med Chem, 2019)
# Active and inactive are the calls of the source. Unless noted, the rule behind the calls is not given here. Non-standard residues stand in square brackets, D forms with d. Residues, ends and D or L forms follow the SMILES beside them. Orn = NCCC[C@H](N)C(=O)O; Dap = NC[C@H](N)C(=O)O
# Legend:
# [1] = Binding affinity to SDS micelle assessed as blue shift with maximum emission at wavelength between 339 to 344 nm at 1 uM in TRIS buffer at pH 7.4 measured after 24 hrs by Trp emission fluorescence spectroscopy
# [2] = Binding affinity to SDS micelle assessed as increase in fluorescence emission intensity at maximum wavelength at 1 uM in TRIS buffer at pH 7.4 measured after 24 hrs by Trp emission fluorescence spectroscopy relative to TRIS buffer
# [3] = Binding affinity to DPC micelle assessed as increase in fluorescence emission intensity at maximum wavelength at 1 uM in TRIS buffer at pH 7.4 measured after 24 hrs by Trp emission fluorescence spectroscopy relative to TRIS buffer
# [4] = test system: Staphylococcus aureus; test: Antibiofilm activity against methicillin-resistant Staphylococcus aureus assessed as inhibition of biofilm formation incubated for overnight by crystal violet staining based microtiter plate assay; type: functional, organism-based
# [5] = Binding affinity to DPC micelle assessed as blue shift with maximum fluorescence emission at 1 uM in TRIS buffer at pH 7.4 measured after 24 hrs by Trp emission fluorescence spectroscopy
# [6] = test system: Staphylococcus aureus; test: Antibacterial activity against methicillin-resistant Staphylococcus aureus assessed as bacterial growth inhibition in MHB medium measured after overnight incubation by CLSI protocol based broth dilution method; type: functional
# [7] = test system: Staphylococcus aureus; test: Antibacterial activity against methicillin-resistant Staphylococcus aureus assessed as alteration in bacterial growth in TSB medium supplemented with 1% glucose at concentration of MIC in MHB medium measured after overnight incubation by CLSI protocol based broth dilution method; type: functional, organism-based
# [8] = test system: PBMC; test: Proinflammatory activity in human PBMC assessed as increase in LPS-stimulated IL1 production at 40 uM incubated for overnight in presence nof Pseudomonas aeruginosa PAO1 LPS by ELISA; type: cell-based
# [9] = test system: Staphylococcus aureus; test: Antibacterial activity against methicillin-resistant Staphylococcus aureus assessed as alteration in bacterial growth in TSB medium supplemented with 1% glucose up to 64 uM measured after overnight incubation by CLSI protocol based broth dilution method; type: functional, organism-based
# [10] = test system: Staphylococcus aureus; test: Antibacterial activity against methicillin-resistant Staphylococcus aureus assessed as bacterial growth inhibition in TSB medium supplemented with 1% glucose measured after overnight incubation by CLSI protocol based broth dilution method; type: functional, organism-based
# [11] = test system: PBMC; test: Immunostimulatory activity in human PBMC assessed as induction of chemokine MCP1 production at 10 to 40 uM incubated for overnight by ELISA; type: functional, cell-based
# [12] = test system: PBMC; test: Cytotoxicity against human PBMC assessed as decrease in cell viability at 10 to 40 uM incubated for overnight by LDH assay; type: cell-based
# [13] = Binding affinity to DPC micelle assessed as blue shift with maximum emission at wavelength of 352 nm at 1 uM in TRIS buffer at pH 7.4 measured after 24 hrs by Trp emission fluorescence spectroscopy
# [14] = Stability of compound assessed as bovine trypsin-mediated compound hydrolysis at 10 uM incubated for 30 mins by RP-HPLC analysis; type: ADME, Bos taurus; settings: cattle, read-out: Drug degradation
# [15] = Binding affinity to DPC micelle assessed as blue shift with maximum emission at wavelength of 340 nm at 1 uM in TRIS buffer at pH 7.4 measured after 24 hrs by Trp emission fluorescence spectroscopy
# [16] = test system: Staphylococcus aureus; test: Antibiofilm activity against methicillin-resistant Staphylococcus aureus assessed as inhibition of biofilm formation by measuring residual biofilm growth incubated for overnight at 10-fold dilution by crystal violet staining based microtiter plate assay relative to control; type: functional
# [17] = test system: Staphylococcus aureus; test: Antibacterial activity against methicillin-resistant Staphylococcus aureus assessed as alteration in bacterial growth incubated for overnight by microtiter plate based spectrophotometric analysis; type: functional, organism-based
# [18] = test system: PBMC; test: Antiinflammatory activity against LPS-stimulated human PBMC assessed as suppression of IL1 production at 10 to 40 uM incubated for overnight in presence of Pseudomonas aeruginosa PAO1 LPS by ELISA; type: functional, cell-based
# [19] = test system: PBMC; test: Cytotoxicity against human PBMC assessed as decrease in cell viability at 40 uM incubated for overnight by LDH assay relative to control; type: cell-based
# [20] = test system: PBMC; test: Proinflammatory activity in human PBMC assessed as increase in LPS-stimulated IL1 production at 40 uM incubated for overnight in presence of Pseudomonas aeruginosa PAO1 LPS by ELISA relative to control; type: cell-based
Compound,Activity [1],Activity [2],fold change (FC) [3],IC50 [4],Activity [5],MIC [6],Activity [7],Activity [8],Activity [9],inhibition [10],Activity [11],Activity [12],"metabolised at 0.5 h, 10 µM [14]",inhibition [4],residual biofilm growth (% of control) [16],Activity [17],Activity [18],other results
CC[C@H](C)[C@H](NC(=O)[C@H](CCCN)NC(=O)[C@@H](NC(=O)[C@H](CCCN)NC(=O)[C@@H](NC(=O)[C@@H](NC(=O)[C@H](CC(C)C)NC(=O)[C@H](CCCN)NC(=O)[C@@H](N)C(C)C)[C@@H](C)CC)C(C)C)C(C)C)C(=O)N[C@@H](Cc1c[nH]c2ccccc12)C(=O)N[C@@H](CCCN)C(=O)N[C@@H](CCCN)C(N)=O (H-V[Orn]LIV[Orn]V[Orn]IW[Orn][Orn]-NH2),Active,inactive,2 to 6,32 µM,Active,32 µM,Active,Toxic,Active,inactive,Active,Non-Toxic,60%,,,,,Activity [13]: Active
H-VRLIVAVRIWRR-NH2,Active,,,4 to 6 µM,Active,4 µM,Active,,Active,inactive,inactive,,60%,Dose-dependent effect,8.5%,Active,,Activity [15]: Active
H-VRLIVKVRIWRR-NH2,Active,,2 to 6,4 to 6 µM,Active,4 µM,Active,,Active,inactive,inactive,Non-Toxic,60%,Dose-dependent effect,6.1%,Active,Active,fold change (FC) [2]: 2.5
H-VKLIVKVKIWKK-NH2,Active,,2 to 6,9.9 µM,Active,4 µM,Active,,Active,inactive,Active,,18%,,,,,fold change (FC) [2]: 2.5; Activity [19]: 40%; fold change (FC) [20]: 4 to 8
H-VKLIVAVKIWKK-NH2,Active,inactive,2 to 6,12.7 µM,Active,4 µM,Active,Toxic,Active,inactive,Active,Non-Toxic,5%,,,,,
CC[C@H](C)[C@H](NC(=O)[C@H](CN)NC(=O)[C@@H](NC(=O)[C@H](CN)NC(=O)[C@@H](NC(=O)[C@@H](NC(=O)[C@H](CC(C)C)NC(=O)[C@H](CN)NC(=O)[C@@H](N)C(C)C)[C@@H](C)CC)C(C)C)C(C)C)C(=O)N[C@@H](Cc1c[nH]c2ccccc12)C(=O)N[C@@H](CN)C(=O)N[C@@H](CN)C(N)=O (H-V[Dap]LIV[Dap]V[Dap]IW[Dap][Dap]-NH2),Active,inactive,2 to 6,19.6 µM,Active,8 µM,Active,,Active,inactive,inactive,Non-Toxic,14%,,,,inactive,
H-VRLIVRVRIWRR-NH2,Active,inactive,2 to 6,4 to 6 µM,Active,2 µM,Active,,Active,inactive,Active,Non-Toxic,90%,Dose-dependent effect,9.2%,Active,Active,
CC[C@H](C)[C@H](NC(=O)[C@H](CN)NC(=O)[C@@H](NC(=O)[C@H](C)NC(=O)[C@@H](NC(=O)[C@@H](NC(=O)[C@H](CC(C)C)NC(=O)[C@H](CN)NC(=O)[C@@H](N)C(C)C)[C@@H](C)CC)C(C)C)C(C)C)C(=O)N[C@@H](Cc1c[nH]c2ccccc12)C(=O)N[C@@H](CN)C(=O)N[C@@H](CN)C(N)=O (H-V[Dap]LIVAV[Dap]IW[Dap][Dap]-NH2),Active,inactive,2 to 6,12.8 µM,Active,4 µM,Active,,Active,inactive,Active,Non-Toxic,30%,,,,,fold change (FC) [20]: 4 to 8
CC[C@H](C)[C@H](NC(=O)[C@H](CCCN)NC(=O)[C@@H](NC(=O)[C@H](C)NC(=O)[C@@H](NC(=O)[C@@H](NC(=O)[C@H](CC(C)C)NC(=O)[C@H](CCCN)NC(=O)[C@@H](N)C(C)C)[C@@H](C)CC)C(C)C)C(C)C)C(=O)N[C@@H](Cc1c[nH]c2ccccc12)C(=O)N[C@@H](CCCN)C(=O)N[C@@H](CCCN)C(N)=O (H-V[Orn]LIVAV[Orn]IW[Orn][Orn]-NH2),Active,inactive,2 to 6,32 µM,Active,8 µM,Active,Toxic,Active,inactive,Active,Non-Toxic,,,,,,
CC[C@H](C)[C@H](NC(=O)[C@H](CCCNC(=N)N)NC(=O)[C@@H](NC(=O)[C@H](C)NC(=O)[C@@H](NC(=O)[C@@H](NC(=O)[C@H](CC(C)C)NC(=O)[C@H](CCCNC(=N)N)NC(=O)[C@@H](N)C(C)C)[C@@H](C)CC)C(C)C)C(C)C)C(=O)N[C@@H](CCCN)C(=O)N[C@@H](CCCNC(=N)N)C(=O)N[C@@H](CCCNC(=N)N)C(N)=O (H-VRLIVAVRI[Orn]RR-NH2),,,,,,,,,,,,,,Dose-dependent effect,39.3%,Active,,
